Measurements published in US20260355189A1, “SMALL MOLECULE INHIBITORS OF NEUTROPHIL EXOCYTOSIS AND INFLAMMATION” (THE SCRIPPS RESEARCH INSTITUTE, priority 2022, published 2026).

Assays:
Format in all cases: cell-based
mouse neutrophils = test: Isoluminol-dependent chemiluminescence assay of MPO secretion in purified mouse neutrophils; details: 10 μM inhibitor, PMA stimulated, FIG. 3B
Description: FIGS. 3A-C illustrate the effect of Inhibitors C1, C2, C4, C5, and C6 and comparator Nexinhib 20 (shown as “C20”) on MPO secretion of mouse neutrophils. FIG. 3A is a schematic representation of a cell-based secondary screening assay used to analyze the potency the potency of Rab27a-JFC1 inhibitors for their ability to decrease exocytosis of intact human neutrophil. This cell-based assay measures the secretion of myeloperoxidase (MPO) by human neutrophils using cell-impermeant isoluminol-dependent chemiluminescence in the absence of exogenous peroxidases.
(§1) Human neutrophils were isolated from normal donor's blood by Ficoll density centrifugation, as described previously (23). Murine bone marrow-derived neutrophils were isolated using a Percoll gradient fractionation system as described (24). A three-layer Percoll gradient was used (52%, 64%, and 72%), and neutrophils were isolated from the 64-72% interface, washed, and used in the assays.
Extracellular MPO-dependent reactive oxygen species (ROS) production was measured using the chemiluminescence reactions mediated by isoluminol (25). To this end, 3×10^5 neutrophils were resuspended in serum-free RPMI 1640 medium in the presence of cell-impermeant isoluminol, and reactions were carried out in the absence of exogenous peroxidase. Neutrophils were incubated in the presence of compounds or DMSO (0.5%) pin-tooled into 384-well plates in a […]. Control experiments were run in parallel in the presence of [COMPOUND LEFT OUT] (0.5 mM) to inhibit endogenous myeloperoxidase. After addition of stimuli (phorbol 12-myristate 13-acetate, “PMA”) or vehicle using liquid handling devices (BioRaptor FRD, Beckman Coulter), MPO-dependent chemiluminescence was continuously monitored for 30 min at 37 °C using a 2104 EnVision multilabel plate reader. For secretion assays, 0.5×10^6 neutrophils were incubated in RPMI 1640 medium in polystyrene 96-well plates in the presence of Inhibitors or dimethyl sulfoxide (DMSO) control for 1 hour and stimulated for the indicated times at 37 °C with PMA (0.1 μg/ml), GM-CSF (10 ng/ml), and fMLP (1 μM) or DMSO control. The cells were spun down, and supernatants were transferred to clean plates using plate filters to avoid contamination from cellular secretory proteins. MPO was measured by ELISA (R&D Systems).
Results: FIG. 3B is a graph showing the effect of Inhibitors C1, C2, C4, C5, and C6 on secreted MPO-dependent reaction using the isoluminol-dependent chemiluminescence assay in highly purified mouse neutrophils. On the graph of FIG. 3B, the pre-fix “NS” means “no stimuli” where the cells were treated with 10 μM C1, C2, C4, C5, C6, and C20 alone without any exocytosis stimuli. The pre-fix “PMA” means the cells were stimulated with PMA to secrete MPO and were treated with 10 μM of the designated Inhibitor. […] Mean % inhibition: C1, 76.74; C2, 59.85; C4, 70.9; C6, 62.4; C20, 99.22.

[1] = test system: human neutrophils (azurophilic granule marker CD63); test: Flow cytometry of azurophilic granule mobilization (CD63) in human neutrophils; details: Homo sapiens, Neutrophil, 1 hour, GM-CSF + fMLP, N=15 donors, FIG. 4, read-out: Mean % inhibition of CD63 up-regulation
Description: as §1
(§2) Method: The up-regulation of granule membrane-associated neutrophil markers at the plasma membrane was analyzed by flow cytometry. In these studies, flow cytometry analysis was performed by resuspension of 1×10^6 human neutrophils in phenol red-free RPMI 1640 medium, treated with a 10 μM solution of Inhibitors C1, C2, C4, C5, and C6 and Nexinhib 20 (C20) or DMSO control for 1 hour, and stimulated with physiological agonists GM-CSF (10 ng/ml) for 30 min followed by the addition of fMLP (1 μM) to induce degranulation or left untreated at 37 °C (non-stimulated, NS). The reactions were stopped by transferring the samples to ice and immediately spinning down the cells to initiate blocking and staining. To analyze the plasma membrane expression of plasma membrane markers, the cells were blocked in ice-cold PBS containing 1% BSA and stained with phycoerythrin (PE)-, FITC-, or Alexa647-conjugated anti-human CD63, CD66b, MMP9, and CD11b antibodies that detect extracellular epitopes of these markers. The cells were then washed and fixed in 1% paraformaldehyde in PBS. Samples were analyzed using a NovoCyte flow cytometer, and the data were processed using FlowJo software.

[2] = test system: human neutrophils (specific granule marker CD66b); test: Flow cytometry of specific granule exocytosis (CD66b) in human neutrophils; details: 1 hour, GM-CSF + fMLP
Description: as §1, §2

[3] = test system: human neutrophils (Gelatinase granule cargo MMP9); test: Flow cytometry of gelatinase granule exocytosis (MMP9) in human neutrophils; details: 1 hour, GM-CSF + fMLP
Description: as §1, §2

[4] = test system: human neutrophils (secretory vesicle marker CD11b); test: Flow cytometry of secretory vesicle mobilization (CD11b) in human neutrophils; details: 10 μM, 1 hour; GM-CSF + fMLP; relative to DMSO; N=15 donors; FIG. 7
Description: as §1, §2

## CCN(CC)CCNC(=O)/C(=C/c1cccc([N+](=O)[O-])c1)n1cncn1 [154 (C6)]
Mouse neutrophils
  Inhibition of exocytosis vs DMSO control: significant inhibition of exocytosis
Mouse neutrophils; Mus musculus, Neutrophil
  inhibition at 10 µM: 62.4%
[1]
  inhibition at 10 µM: 58.1%
[2]; 10 μM, relative to DMSO, FIG. 5
  Inhibition of CD66b up-regulation: reduced the up-regulation of CD66b
[2]; Homo sapiens, Neutrophil, N=12 donors, FIG. 5, read-out: % inhibition of CD66b up-regulation
  inhibition at 10 µM: 42.3%
[3]; 10 μM, relative to DMSO, FIG. 6
  Inhibition in MMP9 experiment (words; printed as CD66b up-regulation): marked inhibition of CD66b up-regulation
[3]; Homo sapiens, Neutrophil, N=12 donors, FIG. 6, read-out: % Inhibition of MMP9 up-regulation
  inhibition at 10 µM: 54.4%
[4]
  Release of CD11b+ vesicles / CD11b upregulation: unaffected
